From ChEMBL document CHEMBL1201862, “PubChem BioAssay data set” (2004)
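Where inhibition never reached the appropriate level, the endpoint shown equals the highest concentration tested. Otherwise, values were interpolated linearly from a five-concentration, 48-hour dose response in 96-well plates. GI50 marks 50% less growth.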 Active and inactive are the calls of the source. Cut-off read from the data, not from the text of the source: active = GI50 up to about 1.1 µM and inactive = higher.

Tests used:
Assay in all cases: DTP human tumour cell line panel, 48 h
MCF7 = system: MCF7
SF-268 = system: SF-268
UACC-257 = system: UACC-257
SNB-75 = system: SNB-75
A498 = system: A498
HCT-116 = system: HCT-116
CAKI-1 = system: CAKI-1
TK-10 = system: TK-10
SF-539 = system: SF-539
Hs-578T = system: Hs-578T
LOX IMVI = system: LOX IMVI
MDA-MB-435 = system: MDA-MB-435
SK-MEL-2 = system: SK-MEL-2
KM12 = system: KM12
SK-OV-3 = system: SK-OV-3
DU-145 = system: DU-145
HOP-92 = system: HOP-92
SR = system: SR
SK-MEL-5 = system: SK-MEL-5
OVCAR-8 = system: OVCAR-8

| SMILES | GI50 (MCF7) | GI50 (SF-268) | GI50 (UACC-257) | GI50 (SNB-75) | GI50 (A498) | GI50 (HCT-116) | GI50 (CAKI-1) | GI50 (TK-10) | GI50 (SF-539) | GI50 (Hs-578T) | GI50 (LOX IMVI) | GI50 (MDA-MB-435) | GI50 (SK-MEL-2) | GI50 (KM12) | GI50 (SK-OV-3) | GI50 (DU-145) | GI50 (HOP-92) | GI50 (SR) | GI50 (SK-MEL-5) | GI50 (OVCAR-8) |
| --- | --- | --- | --- | --- | --- | --- | --- | --- | --- | --- | --- | --- | --- | --- | --- | --- | --- | --- | --- | --- |
| O=C1c2ccccc2C(=O)[C@@]23O[C@@]12C1(Oc2cccc4cccc(c24)O1)[C@@H]1O[C@@H]1[C@@H]3O | 3.66 µM (inactive) | 9.68 µM (inactive) | 15.8 µM (inactive) | 10.7 µM (inactive) | 26.9 µM (inactive) | 4.4 µM (inactive) | 11.1 µM (inactive) | 11.3 µM (inactive) | 2.64 µM (inactive) | 14.9 µM (inactive) | 4.22 µM (inactive) | 17.2 µM (inactive) | 19.2 µM (inactive) | 14 µM (inactive) | 15.1 µM (inactive) | 14.6 µM (inactive) | 15.8 µM (inactive) | 1.43 µM (inactive) | 24.4 µM (inactive) | 4.71 µM (inactive) |
| C=CCCC1CCCCC/C1=N\N(C)C (stereo not drawn) | > 100 µM (inactive) | > 100 µM (inactive) | > 100 µM (inactive) | > 100 µM (inactive) | > 100 µM (inactive) | > 100 µM (inactive) | > 100 µM (inactive) | > 100 µM (inactive) | > 100 µM (inactive) | > 100 µM (inactive) | > 100 µM (inactive) | > 100 µM (inactive) | > 100 µM (inactive) | > 100 µM (inactive) | > 100 µM (inactive) | > 100 µM (inactive) | > 100 µM (inactive) | > 100 µM (inactive) | > 100 µM (inactive) | > 100 µM (inactive) |
| CCOC(=O)/C(C#N)=N\Nc1ccc(-n2c(C)nc3ccccc3c2=O)cc1 | 84.3 µM (inactive) | > 100 µM (inactive) | 61.4 µM (inactive) | 63.5 µM (inactive) | > 100 µM (inactive) | 59.6 µM (inactive) | > 100 µM (inactive) | > 100 µM (inactive) | > 100 µM (inactive) | 59 µM (inactive) | 66.2 µM (inactive) | 47.6 µM (inactive) | > 100 µM (inactive) | 30.2 µM (inactive) | > 100 µM (inactive) | 77.6 µM (inactive) | > 100 µM (inactive) | 39.4 µM (inactive) | 16.5 µM (inactive) | 29.6 µM (inactive) |
| CCOC(C[Se]CC(OCC)OCC)OCC | 48.3 µM (inactive) | – | 85.1 µM (inactive) | 13.2 µM (inactive) | > 100 µM (inactive) | 32.7 µM (inactive) | 59.4 µM (inactive) | 53.6 µM (inactive) | 28.7 µM (inactive) | 14.9 µM (inactive) | 22.9 µM (inactive) | 36.4 µM (inactive) | 48.5 µM (inactive) | 53.2 µM (inactive) | 74.6 µM (inactive) | 37.5 µM (inactive) | 39.6 µM (inactive) | > 100 µM (inactive) | 15.7 µM (inactive) | 27.2 µM (inactive) |
| CC(=O)OC1C(O)C(C)OC(OC2C(OC(=O)C3CCC4C(C3)OC3(CC(OC(=O)/C=C/c5ccccc5)C(C)CO3)C43CO3)OC(C)C(O)C2OC(C)=O)C1O (stereo not drawn) | 0.00429 µM (active) | 0.00849 µM (active) | 0.0205 µM (active) | 0.00867 µM (active) | 0.0526 µM (active) | 0.00661 µM (active) | 0.285 µM (active) | 0.0506 µM (active) | 0.00736 µM (active) | 0.00124 µM (active) | 0.00463 µM (active) | 0.000668 µM (active) | 0.00561 µM (active) | 0.00912 µM (active) | 0.0145 µM (active) | 0.0103 µM (active) | 0.00581 µM (active) | 0.00258 µM (active) | 0.00418 µM (active) | 0.0352 µM (active) |
| COc1cccc2c1C(=O)OC2c1cccc2ccccc12 (stereo not drawn) | 31.6 µM (inactive) | 72.8 µM (inactive) | > 91 µM (inactive) | 23.8 µM (inactive) | > 52.5 µM (inactive) | > 96.6 µM (inactive) | > 100 µM (inactive) | > 73.3 µM (inactive) | 63.7 µM (inactive) | 33 µM (inactive) | > 100 µM (inactive) | > 100 µM (inactive) | > 100 µM (inactive) | > 100 µM (inactive) | > 73.6 µM (inactive) | > 100 µM (inactive) | 30.9 µM (inactive) | > 100 µM (inactive) | > 100 µM (inactive) | 56.4 µM (inactive) |
| N#C/C(C(=O)CCl)=C1\Nc2ccccc2O1 | 2.56 µM (inactive) | 2.67 µM (inactive) | 3.07 µM (inactive) | 5.48 µM (inactive) | 1.95 µM (inactive) | 3.43 µM (inactive) | 3.65 µM (inactive) | 7.01 µM (inactive) | 2.79 µM (inactive) | 6.01 µM (inactive) | 1.65 µM (inactive) | 3.24 µM (inactive) | 3.3 µM (inactive) | 3.89 µM (inactive) | 12.1 µM (inactive) | 10.2 µM (inactive) | 3.88 µM (inactive) | 3.84 µM (inactive) | 1.72 µM (inactive) | 2.89 µM (inactive) |
| NCCSCCC(=O)O | > 57.1 µM (inactive) | > 77.3 µM (inactive) | > 59 µM (inactive) | > 40.3 µM (inactive) | > 68.7 µM (inactive) | > 56.6 µM (inactive) | > 59.2 µM (inactive) | > 67.1 µM (inactive) | 21.9 µM (inactive) | > 100 µM (inactive) | 39 µM (inactive) | > 100 µM (inactive) | > 83.8 µM (inactive) | > 82.8 µM (inactive) | > 65.8 µM (inactive) | > 52 µM (inactive) | > 100 µM (inactive) | 14.4 µM (inactive) | 39.9 µM (inactive) | > 84.3 µM (inactive) |
| N#Cc1cc2c(cc1Cl)Sc1nccn1S2(=O)=O | 3.8 µM (inactive) | 3.33 µM (inactive) | 2.21 µM (inactive) | 7.53 µM (inactive) | 18.3 µM (inactive) | 1.79 µM (inactive) | 1.4 µM (inactive) | 13.5 µM (inactive) | 3.7 µM (inactive) | 2.68 µM (inactive) | 1.57 µM (inactive) | 4.91 µM (inactive) | 3.74 µM (inactive) | 5.79 µM (inactive) | 4.47 µM (inactive) | 2.33 µM (inactive) | 4.93 µM (inactive) | 1 µM (active) | 9.93 µM (inactive) | 2.82 µM (inactive) |
| COc1ccc(/C=C2\CCS(=O)(=O)c3ccccc3C2=O)cc1OC | 12.2 µM (inactive) | 29.3 µM (inactive) | 35.5 µM (inactive) | 24.9 µM (inactive) | 33.4 µM (inactive) | 28.1 µM (inactive) | 58.6 µM (inactive) | 26.9 µM (inactive) | 25.6 µM (inactive) | 20.7 µM (inactive) | 19.1 µM (inactive) | 30.7 µM (inactive) | 35.4 µM (inactive) | 28.4 µM (inactive) | 51.3 µM (inactive) | 23.6 µM (inactive) | 19.6 µM (inactive) | 43.5 µM (inactive) | – | 19.1 µM (inactive) |
